Laboratory results published in US20230016424A1, “HYBRID AMIDE DERIVATIVES OF AMPHOTERICIN B” (The Board of Trustees of the University of Illinois, priority 2019, published 2023).

Tested on: C. albicans SN250, C. albicans, C. krusei, C. glabrata, C. tropicalis, A. fumigatus 91, 1163, 1100
Assay: Average MIC over the tested strains
Assay type: cell-based
Settings: for MIC (Average Minimum Inhibition Concentration): Table 7, C16 amide AmB variants; for Average MIC: Table 12, C16 amides of C2'epiAmB

| SMILES | MIC (Average Minimum Inhibition Concentration) [µM] | Average MIC [µM] |
| --- | --- | --- |
| CC1C=CC=CC=CC=CC=CC=CC=CC(OC2OC(C)C(O)C(N)C2O)CC2OC(O)(CC(O)CC(O)C(O)CCC(O)CC(O)CC(=O)OC(C)C(C)C1O)CC(O)C2C(=O)NC1C(CO)OC(n2cnc3c(N)ncnc32)C1O (mixture of isomers) [EA] | 0.422 |  |
| CC1C=CC=CC=CC=CC=CC=CC=CC(OC2OC(C)C(O)C(N)C2O)CC2OC(O)(CC(O)CC(O)C(O)CCC(O)CC(O)CC(=O)OC(C)C(C)C1O)CC(O)C2C(=O)NC1CCCC1O (mixture of isomers) [EV] | 0.500 |  |
| CC1C=CC=CC=CC=CC=CC=CC=CC(OC2OC(C)C(O)C(N)C2O)CC2OC(O)(CC(O)CC(O)C(O)CCC(O)CC(O)CC(=O)OC(C)C(C)C1O)CC(O)C2C(=O)NC1C(O)OC(CO)C(O)C1O (mixture of isomers) [FK] | 0.211 |  |
| COC1OC(CO)C(O)C(NC(=O)C2C(O)CC3(O)CC(O)CC(O)C(O)CCC(O)CC(O)CC(=O)OC(C)C(C)C(O)C(C)C=CC=CC=CC=CC=CC=CC=CC(OC4OC(C)C(O)C(N)C4O)CC2O3)C1O (mixture of isomers) [FO] | 0.258 |  |
| CCC(O)CNC(=O)C1C(O)CC2(O)CC(O)CC(O)C(O)CCC(O)CC(O)CC(=O)OC(C)C(C)C(O)C(C)C=CC=CC=CC=CC=CC=CC=CC(OC3OC(C)C(O)C(N)C3O)CC1O2 (mixture of isomers) [FX] | 0.313 |  |
| CC1C=CC=CC=CC=CC=CC=CC=CC(OC2OC(C)C(O)C(N)C2O)CC2OC(O)(CC(O)CC(O)C(O)CCC(O)CC(O)CC(=O)OC(C)C(C)C1O)CC(O)C2C(=O)NC1C(O)COC(O)C1O (mixture of isomers) [GE] | 0.320 |  |
| CC1C=CC=CC=CC=CC=CC=CC=CC(OC2OC(C)C(O)C(N)C2O)CC2OC(O)(CC(O)CC(O)C(O)CCC(O)CC(O)CC(=O)OC(C)C(C)C1O)CC(O)C2C(=O)NC1C(O)OC(CO)C(O)C1O (mixture of isomers) [GL] | 0.344 |  |
| CC1C=CC=CC=CC=CC=CC=CC=CC(OC2OC(C)C(O)C(N)C2O)CC2OC(O)(CC(O)CC(O)C(O)CCC(O)CC(O)CC(=O)OC(C)C(C)C1O)CC(O)C2C(=O)NC1COCC1O (centres unmarked) [BP] |  | 1.250 |
| CNC(=O)C1C(O)CC2(O)CC(O)CC(O)C(O)CCC(O)CC(O)CC(=O)OC(C)C(C)C(O)C(C)C=CC=CC=CC=CC=CC=CC=CC(OC3OC(C)C(O)C(N)C3O)CC1O2 (centres unmarked) [BS] |  | 1.734 |
| CC1C=CC=CC=CC=CC=CC=CC=CC(OC2OC(C)C(O)C(N)C2O)CC2OC(O)(CC(O)CC(O)C(O)CCC(O)CC(O)CC(=O)OC(C)C(C)C1O)CC(O)C2C(=O)NCCN (centres unmarked) [BT] |  | 1.750 |
| CC1C=CC=CC=CC=CC=CC=CC=CC(OC2OC(C)C(O)C(N)C2O)CC2OC(O)(CC(O)CC(O)C(O)CCC(O)CC(O)CC(=O)OC(C)C(C)C1O)CC(O)C2C(=O)NCCC(N)=O (centres unmarked) [BU] |  | 2.563 |
| CC1C=CC=CC=CC=CC=CC=CC=CC(OC2OC(C)C(O)C(N)C2O)CC2OC(O)(CC(O)CC(O)C(O)CCC(O)CC(O)CC(=O)OC(C)C(C)C1O)CC(O)C2C(=O)NC1CC1 (centres unmarked) [BV] |  | 3.063 |
| CC1C=CC=CC=CC=CC=CC=CC=CC(OC2OC(C)C(O)C(N)C2O)CC2OC(O)(CC(O)CC(O)C(O)CCC(O)CC(O)CC(=O)OC(C)C(C)C1O)CC(O)C2C(=O)NC1CCC1 (centres unmarked) [BW] |  | 5.563 |
| COC(=O)C(Cc1c[nH]cn1)NC(=O)C1C(O)CC2(O)CC(O)CC(O)C(O)CCC(O)CC(O)CC(=O)OC(C)C(C)C(O)C(C)C=CC=CC=CC=CC=CC=CC=CC(OC3OC(C)C(O)C(N)C3O)CC1O2 (centres unmarked) [BX] |  | 9.073 |
| CC1C=CC=CC=CC=CC=CC=CC=CC(OC2OC(C)C(O)C(N)C2O)CC2OC(O)(CC(O)CC(O)C(O)CCC(O)CC(O)CC(=O)OC(C)C(C)C1O)CC(O)C2C(=O)NCCN(C)C (centres unmarked) [DA] | 0.352 |  |
| CC1C=CC=CC=CC=CC=CC=CC=CC(OC2OC(C)C(O)C(N)C2O)CC2OC(O)(CC(O)CC(O)C(O)CCC(O)CC(O)CC(=O)OC(C)C(C)C1O)CC(O)C2C(=O)NC(CO)CO (centres unmarked) [DD] | 0.375 |  |
| CC1C=CC=CC=CC=CC=CC=CC=CC(OC2OC(C)C(O)C(N)C2O)CC2OC(O)(CC(O)CC(O)C(O)CCC(O)CC(O)CC(=O)OC(C)C(C)C1O)CC(O)C2C(=O)NCC1OC(n2cnc3c(=O)[nH]c(N)nc32)C(O)C1O (centres unmarked) [DM] | 0.391 |  |
| CC1C=CC=CC=CC=CC=CC=CC=CC(OC2OC(C)C(O)C(N)C2O)CC2OC(O)(CC(O)CC(O)C(O)CCC(O)CC(O)CC(=O)OC(C)C(C)C1O)CC(O)C2C(=O)NCCn1ncnn1 (centres unmarked) [DN] | 0.391 |  |
| CC1C=CC=CC=CC=CC=CC=CC=CC(OC2OC(C)C(O)C(N)C2O)CC2OC(O)(CC(O)CC(O)C(O)CCC(O)CC(O)CC(=O)OC(C)C(C)C1O)CC(O)C2C(=O)NCCOCCN (centres unmarked) [DP] | 0.391 |  |
| COC(=O)C(CCCNC(=N)N)NC(=O)C1C(O)CC2(O)CC(O)CC(O)C(O)CCC(O)CC(O)CC(=O)OC(C)C(C)C(O)C(C)C=CC=CC=CC=CC=CC=CC=CC(OC3OC(C)C(O)C(N)C3O)CC1O2 (centres unmarked) [DQ] | 0.406 |  |
| CC1C=CC=CC=CC=CC=CC=CC=CC(OC2OC(C)C(O)C(N)C2O)CC2OC(O)(CC(O)CC(O)C(O)CCC(O)CC(O)CC(=O)OC(C)C(C)C1O)CC(O)C2C(=O)NC1CCC(N)CC1 (centres unmarked) [DU] | 0.406 |  |

| SMILES | MIC (Average Minimum Inhibition Concentration) [µM] | Average MIC [µM] |
| --- | --- | --- |
| CC1C=CC=CC=CC=CC=CC=CC=CC(OC2OC(C)C(O)C(N)C2O)CC2OC(O)(CC(O)CC(O)C(O)CCC(O)CC(O)CC(=O)OC(C)C(C)C1O)CC(O)C2C(=O)NCCNC(=N)N (centres unmarked) [DV] | 0.406 |  |
| CC1C=CC=CC=CC=CC=CC=CC=CC(OC2OC(C)C(O)C(N)C2O)CC2OC(O)(CC(O)CC(O)C(O)CCC(O)CC(O)CC(=O)OC(C)C(C)C1O)CC(O)C2C(=O)N(CO)CCO (centres unmarked) [DW] | 0.419 |  |
| CC1C=CC=CC=CC=CC=CC=CC=CC(OC2OC(C)C(O)C(N)C2O)CC2OC(O)(CC(O)CC(O)C(O)CCC(O)CC(O)CC(=O)OC(C)C(C)C1O)CC(O)C2C(=O)NC1COC1 (centres unmarked) [DX] | 0.422 |  |
| CC1C=CC=CC=CC=CC=CC=CC=CC(OC2OC(C)C(O)C(N)C2O)CC2OC(O)(CC(O)CC(O)C(O)CCC(O)CC(O)CC(=O)OC(C)C(C)C1O)CC(O)C2C(=O)NCC(C)(C)C(N)=O (centres unmarked) [EC] | 0.422 |  |
| CC1C=CC=CC=CC=CC=CC=CC=CC(OC2OC(C)C(O)C(N)C2O)CC2OC(O)(CC(O)CC(O)C(O)CCC(O)CC(O)CC(=O)OC(C)C(C)C1O)CC(O)C2C(=O)NCCS(C)(=O)=O (centres unmarked) [EE] | 0.422 |  |
| CC1C=CC=CC=CC=CC=CC=CC=CC(OC2OC(C)C(O)C(N)C2O)CC2OC(O)(CC(O)CC(O)C(O)CCC(O)CC(O)CC(=O)OC(C)C(C)C1O)CC(O)C2C(=O)NCC1OC(O)C(O)C(O)C1O (centres unmarked) [EF] | 0.430 |  |
| CC1C=CC=CC=CC=CC=CC=CC=CC(OC2OC(C)C(O)C(N)C2O)CC2OC(O)(CC(O)CC(O)C(O)CCC(O)CC(O)CC(=O)OC(C)C(C)C1O)CC(O)C2C(=O)NCB(O)O (centres unmarked) [EG] | 0.430 |  |
| CC1C=CC=CC=CC=CC=CC=CC=CC(OC2OC(C)C(O)C(N)C2O)CC2OC(O)(CC(O)CC(O)C(O)CCC(O)CC(O)CC(=O)OC(C)C(C)C1O)CC(O)C2C(=O)NC1CC1 (centres unmarked) [EI] | 0.438 |  |
| CC1C=CC=CC=CC=CC=CC=CC=CC(OC2OC(C)C(O)C(N)C2O)CC2OC(O)(CC(O)CC(O)C(O)CCC(O)CC(O)CC(=O)OC(C)C(C)C1O)CC(O)C2C(=O)NCCC#N (centres unmarked) [EK] | 0.438 |  |
| C=CCNC(=O)C1C(O)CC2(O)CC(O)CC(O)C(O)CCC(O)CC(O)CC(=O)OC(C)C(C)C(O)C(C)C=CC=CC=CC=CC=CC=CC=CC(OC3OC(C)C(O)C(N)C3O)CC1O2 (centres unmarked) [EL] | 0.453 |  |
| COCC(C)NC(=O)C1C(O)CC2(O)CC(O)CC(O)C(O)CCC(O)CC(O)CC(=O)OC(C)C(C)C(O)C(C)C=CC=CC=CC=CC=CC=CC=CC(OC3OC(C)C(O)C(N)C3O)CC1O2 (centres unmarked) [EM] | 0.469 |  |
| CC1C=CC=CC=CC=CC=CC=CC=CC(OC2OC(C)C(O)C(N)C2O)CC2OC(O)(CC(O)CC(O)C(O)CCC(O)CC(O)CC(=O)OC(C)C(C)C1O)CC(O)C2C(=O)NCC(C)(C)F (centres unmarked) [EN] | 0.469 |  |
| CC1C=CC=CC=CC=CC=CC=CC=CC(OC2OC(C)C(O)C(N)C2O)CC2OC(O)(CC(O)CC(O)C(O)CCC(O)CC(O)CC(=O)OC(C)C(C)C1O)CC(O)C2C(=O)NCCNS(C)(=O)=O (centres unmarked) [EO] | 0.469 |  |
| CC1C=CC=CC=CC=CC=CC=CC=CC(OC2OC(C)C(O)C(N)C2O)CC2OC(O)(CC(O)CC(O)C(O)CCC(O)CC(O)CC(=O)OC(C)C(C)C1O)CC(O)C2C(=O)NCCCS(N)(=O)=O (centres unmarked) [EP] | 0.484 |  |
| CC1C=CC=CC=CC=CC=CC=CC=CC(OC2OC(C)C(O)C(N)C2O)CC2OC(O)(CC(O)CC(O)C(O)CCC(O)CC(O)CC(=O)OC(C)C(C)C1O)CC(O)C2C(=O)NCCCNC(N)=O (centres unmarked) [EQ] | 0.484 |  |
| CC1C=CC=CC=CC=CC=CC=CC=CC(OC2OC(C)C(O)C(N)C2O)CC2OC(O)(CC(O)CC(O)C(O)CCC(O)CC(O)CC(=O)OC(C)C(C)C1O)CC(O)C2C(=O)NCCN1CCOC1=O (centres unmarked) [ER] | 0.484 |  |
| CC1C=CC=CC=CC=CC=CC=CC=CC(OC2OC(C)C(O)C(N)C2O)CC2OC(O)(CC(O)CC(O)C(O)CCC(O)CC(O)CC(=O)OC(C)C(C)C1O)CC(O)C2C(=O)NC1CNC1=O (centres unmarked) [ES] | 0.484 |  |
| CC1C=CC=CC=CC=CC=CC=CC=CC(OC2OC(C)C(O)C(N)C2O)CC2OC(O)(CC(O)CC(O)C(O)CCC(O)CC(O)CC(=O)OC(C)C(C)C1O)CC(O)C2C(=O)NC1COCC1O (centres unmarked) [EU] | 0.500 |  |
| CC1C=CC=CC=CC=CC=CC=CC=CC(OC2OC(C)C(O)C(N)C2O)CC2OC(O)(CC(O)CC(O)C(O)CCC(O)CC(O)CC(=O)OC(C)C(C)C1O)CC(O)C2C(=O)NCCOC(F)F (centres unmarked) [EW] | 0.500 |  |
| CC1C=CC=CC=CC=CC=CC=CC=CC(OC2OC(C)C(O)C(N)C2O)CC2OC(O)(CC(O)CC(O)C(O)CCC(O)CC(O)CC(=O)OC(C)C(C)C1O)CC(O)C2C(=O)NCCCCO (centres unmarked) [EY] | 0.500 |  |
